From US20230295086A1, “NOVEL PSILOCIN DERIVATIVES HAVING PRODRUG PROPERTIES” (COMPASS […], priority 2020, published 2023)
In brackets after ≈: the same amount, converted by molar mass. Marks after values point to notes of the source that are not given here.

What was measured:
[1] = Kinetic solubility assay (Example 11)
Experimental: Test and control compounds were diluted to 10 mM in DMSO and then further diluted 1 in 50 in 50 mM PB (pH 7.4) to a target concentration of 200 μM. Samples were vortexed for at least 2 minutes and then left to shake (800 rpm) at room temperature for 24 hours. Visual appearance was assessed before centrifugation and injection into a UPLC system to measure concentration. […] Each compound was tested in duplicate.

[2] = Shake flask Log D assay (Example 11); type: physicochemical; conditions: 1-Octanol / 100 mM PB pH 7.4, shake flask, LC-MS/MS; test compound as hydrochloride
Experimental: Test and control compounds were diluted to 10 mM in DMSO. 2 μl of each stock solution was aliquoted into tubes in duplicate. 1-Octanol saturated phosphate buffer (PB) (pH 7.4) was prepared by adding 1-Octanol into 100 ml of 100 mM PB (7.4). PB saturated 1-Octanol was prepared by adding 10 ml of 100 mM PB (7.4) into 100 ml of 1-Octanol. 149 μl of each solution was aliquoted into the corresponding tubes. These were then mixed vigorously for 2 minutes and shaken (800 rpm) at room temperature for one hour. The appropriate volume of buffer and 1-Octanol layer samples was aliquoted and diluted, before detection using LC-MS/MS.
Log D was calculated according to the following equation: […]

[3] = molecular target: T1, serotonin 2A (5-HT2A) receptor (Mus musculus, UniProt P35363); assay: Head twitch response (HTR) in mice; type: in vivo, male C57BL/6J mice; conditions: oral gavage 0.3 mg/kg
T1 construct: tissue Charles River UK; host or cells: whole living male C57BL/6J mice (in vivo, oral gavage)

Micro shake flask Log D = conditions: for Mean LogD: Octanol:PBS 1:9, pH 7.4, 10 μM, six replicates, novel compounds as hemifumarate; for logD at 2 h: pH 7.4
Experimental: 6 replicates of each test compound were incubated at 10 μM in a 1:9 ratio of Octanol: PBS at pH 7.4. Following a two hour incubation at room temperature shaking at 600 rpm, the incubation plate was centrifuged for 15 minutes to separate the layers and then two aliquots were removed from the PBS layer. The first was left neat and the second was diluted 10-fold to give dilute samples. Internal standards were added to both the calibration curve and the PBS incubation samples for analysis on LC MS/MS.
All 6 replicates of the neat samples were averaged to give one value for each, with the same calculation performed for the dilute sample values.

[4] = Kinetic turbidimetric solubility assay; conditions: 0.01 M PBS pH 7.4, 2% DMSO, room temperature, novel compounds as hemifumarate, psilocybin and psilocin free base; for solubility at 5 min: pH 7.4, aqueous buffer, kinetic from dmso stock
Experimental: Each test compound was diluted to 10 mM in DMSO. From this solution, six further dilutions of each test compound were prepared in DMSO (0.02, 0.1, 0.2, 1, 2, and 5 mM). […] Three replicate wells were designated per concentration. Following the dilutions in buffer, plates were incubated at room temperature shaking for 5 minutes before the absorbance was measured at 620 nm using a Molecular Devices SpectraMax384 UV detector. Nicardipine was tested as a control compound.
Solubility was estimated from the concentration of test compound that produced an increase in absorbance above a threshold of 0.005 absorbance units and was normalized to the DMSO blank.

[5] = Intake study: serum concentrations after oral ingestion by two volunteers; conditions: for c(Psilocin): study 1
Experimental: Two volunteers (1 M, 1 F) ingested about 1 mg of each one of P1 and M1 (Study 1) and P2 and M2 (Study 2) in gelatin capsules (exact amounts in Tables 3 and 4). One blood sample was collected prior to ingestion of the substances and served as a zero control. After ingestion samples were collected for about 8 h with increasing time intervals between sample taking (exact protocol in Tables 4 and 5). […] The obtained sera were transferred in plastic tubes and NaF (ca. 30 mg) and ascorbic acid (ca. 5 mg) were added to increase analytes stability.
200 μL serum were spiked with an internal standard solution (10 μL) and ACN (600 μL) was added to precipitate soluble proteins. Before mixing thoroughly ammonium formate (10 M, 200 μL) was added separate the aqueous from the organic phase. After centrifugation (6 min, 4,000×g), 500 μL of the organic phase were transferred into another vial and evaporated to dryness at 40° C. under a gentle stream of nitrogen. Samples were reconstituted in 100 μL mobile phase (A/B, 90/10, v/v) and used for analysis. For quantification a blank sample and a six point calibration (0.5, 1.0, 2.0, 5.0, 10, 20 ng/mL) in calf serum were prepared as described above.
The HPLC-MS system consisted of a Nexera X2 UHPLC system composed of three LC-30AD pumps, a DGU-30A3 degasser, a SIL-30AC autosampler, a CTO-10AS column oven and a CBM-20A controller (Shimadzu, Duisburg, Germany) coupled to a QTRAP 6500plus triple quadrupole linear ion trap mass spectrometer equipped with a TurbolonSpray Interface (Sciex, Darmstadt, Germany). The MS was operated in positive electrospray ionization mode. Data acquisition was performed in scheduled multiple reaction monitoring mode (detection window: 60 s) using Analyst software (version 1.7). MS parameters (declustering potential, entrance potential, collision energy, and collision cell exit potential) were optimized for all substances to obtain the best possible signal intensities (summary of the MRM parameters are given in Table 5). Ion source temperature and ion source voltage were set to 550° C. and +5500 V, respectively. Dwell time was 20 ms for every MRM transition. Curtain gas (N2) pressure was 35 psi, ion source gas 1 and 2 (compressed air) pressure were 50 and 60 psi, respectively, and collision gas (N2) pressure was set to “high.” Chromatographic separation was performed on a Kinetex® biphenyl column (100×2.1 mm, 2.6 μm particle size, Phenomenex, Aschaffenburg, Germany) with a corresponding guard column (SecurityGuard™ ULTRA Cartridges UHPLC Biphenyl for 2.1 mm ID columns, Phenomenex, Aschaffenburg, Germany). The autosampler and the column oven temperature were set to 10° C. and 40° C., respectively. The injection volume was 10 μL.

[6] = serum, oral intake of about 1 mg prodrug, mean of 2 volunteers

T1 sequence (P35363 whole entry): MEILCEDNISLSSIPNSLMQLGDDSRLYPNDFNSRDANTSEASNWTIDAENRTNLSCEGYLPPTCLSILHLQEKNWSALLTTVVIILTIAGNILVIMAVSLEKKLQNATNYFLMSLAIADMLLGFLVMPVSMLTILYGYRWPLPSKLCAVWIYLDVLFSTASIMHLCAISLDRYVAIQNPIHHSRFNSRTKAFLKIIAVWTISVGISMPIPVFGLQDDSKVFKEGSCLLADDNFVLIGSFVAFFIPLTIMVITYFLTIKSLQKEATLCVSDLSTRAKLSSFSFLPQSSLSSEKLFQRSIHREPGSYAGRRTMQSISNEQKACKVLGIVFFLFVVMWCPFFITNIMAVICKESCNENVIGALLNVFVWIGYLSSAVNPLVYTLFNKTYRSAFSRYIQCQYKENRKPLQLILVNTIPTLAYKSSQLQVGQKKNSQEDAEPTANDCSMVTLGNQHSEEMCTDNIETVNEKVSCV

Structure (SMILES): NC(=O)N1c2ccccc2C=Cc2ccccc21 [Carbamazepine]
- Detected concentration ([1]; 50 mM PB pH 7.4, target 200 μM, 24 hours shaking at room temperature, UPLC, test compound as hydrochloride): 180 µM
- solubility at 24 h ([1]; pH 7.4, aqueous buffer, kinetic from dmso stock): > 180 µM

Structure (SMILES): CN(C)CCCN1c2ccccc2Sc2ccc(Cl)cc21 [Chlorpromazine]
- logD at 1 h [2]: 3.28

Structure (SMILES): CCOC(=O)Oc1cccc2[nH]cc(CCN(C)CC)c12 [N-methyl-N-ethyltryptamine-4-yl ethylcarbonate]
- Mean number of head twitches 15-30 mins ([3]; N = 8): 3.5
- Mean number of head twitches 30-45 mins ([3]; N = 8): 2.38
- Mean number of head twitches 45-60 mins ([3]; N = 8): 0.38
- Mean LogD (Micro shake flask Log D): 1.01
- Solubility [4]: >200 µM

Structure (SMILES): CC(C)(C)NCC(O)COc1cccc2c1CC(O)C(O)C2 (stereo not shown) [Nadolol]
- logD at 1 h [2]: -1.33

Structure (SMILES): COC(=O)C1=C(C)NC(C)=C(C(=O)OCCN(C)Cc2ccccc2)C1c1cccc([N+](=O)[O-])c1 (stereo not shown) [Nicardipine]
- solubility at 5 min [4]: 24.4 µM (≈ 11.7 µg/mL)

Structure (SMILES): CN(C)CCc1c[nH]c2cccc(O)c12 [Psilocin, psilocin]
- logD at 2 h (Micro shake flask Log D): 1.01
- solubility at 5 min [4]: > 200 µM

Structure (SMILES): CCOC(=O)Oc1cccc2[nH]cc(CCN(C)C)c12 [Psilocin-4-yl-ethylcarbonate, psilocin-4-yl ethyl carbonate]
- Mean number of head twitches 0-15 mins ([3]; N = 8): 3.5
- Mean number of head twitches 15-30 mins ([3]; N = 8): 3.13
- Mean number of head twitches 30-45 mins ([3]; N = 8): 3.38
- Mean number of head twitches 45-60 mins ([3]; N = 8): 1.13
- Mean number of head twitches Total 0-60 mins ([3]; N = 8, 0.3 mg/kg): 10.84
- Parent prodrug itself in serum (not detected, LOD) ([5]; serum after oral ingestion of about 1 mg): < 0.05 ng/mL
- Cmax of psilocin [5, 6]: 1.1 ± 0.5 ng/mL
- Tmax of psilocin [5, 6]: 0.933 ± 0.217 h
- elimination constant kel of psilocin [5, 6]: 0.0039 min⁻¹
- elimination half life t1/2 of psilocin [5, 6]: 3.18 h
- c(Psilocin) ([5]; serum, test person A, oral P1 1.03 mg salt, 15 min, below LOQ, extrapolated): 0.15* ng/mL
- c(Psilocin) ([5]; serum, test person A, oral P1 1.03 mg salt, 21 min): 0.34 ng/mL
- c(Psilocin) ([5]; serum, test person A, oral P1 1.03 mg salt, 31 min): 0.51 ng/mL
- c(Psilocin) ([5]; serum, test person A, oral P1 1.03 mg salt, 49 min): 0.82 ng/mL
- c(Psilocin) ([5]; serum, test person A, oral P1 1.03 mg salt, 65 min): 1.45 ng/mL
- c(Psilocin) ([5]; serum, test person A, oral P1 1.03 mg salt, 87 min): 1.02 ng/mL
- c(Psilocin) ([5]; serum, test person A, oral P1 1.03 mg salt, 120 min): 1.02 ng/mL
- c(Psilocin) ([5]; serum, test person A, oral P1 1.03 mg salt, 155 min): 0.59 ng/mL
- c(Psilocin) ([5]; serum, test person A, oral P1 1.03 mg salt, 165 min): 0.98 ng/mL
- c(Psilocin) ([5]; serum, test person A, oral P1 1.03 mg salt, 240 min): 0.58 ng/mL
- c(Psilocin) ([5]; serum, test person A, oral P1 1.03 mg salt, 338 min): 0.34 ng/mL
- c(Psilocin) ([5]; serum, test person A, oral P1 1.03 mg salt, 371 min): 0.33 ng/mL
- c(Psilocin) ([5]; serum, test person A, oral P1 1.03 mg salt, 424 min, below LOQ, extrapolated): 0.29* ng/mL
- c(Psilocin) ([5]; serum, test person A, oral P1 1.03 mg salt, 486 min, below LOQ, extrapolated): 0.26* ng/mL
- c(Psilocin) ([5]; serum, test person B, oral P1 0.99 mg salt, 6 min, below LOQ, extrapolated): 0.22* ng/mL
- c(Psilocin) ([5]; serum, test person B, oral P1 0.99 mg salt, 13 min, below LOQ, extrapolated): 0.25* ng/mL
- c(Psilocin) ([5]; serum, test person B, oral P1 0.99 mg salt, 20 min): 0.38 ng/mL
- c(Psilocin) ([5]; serum, test person B, oral P1 0.99 mg salt, 30 min): 0.60 ng/mL
- c(Psilocin) ([5]; serum, test person B, oral P1 0.99 mg salt, 47 min): 0.76 ng/mL
- c(Psilocin) ([5]; serum, test person B, oral P1 0.99 mg salt, 64 min): 0.54 ng/mL
- c(Psilocin) ([5]; serum, test person B, oral P1 0.99 mg salt, 83 min): 0.60 ng/mL
- c(Psilocin) ([5]; serum, test person B, oral P1 0.99 mg salt, 114 min): 0.43 ng/mL
- c(Psilocin) ([5]; serum, test person B, oral P1 0.99 mg salt, 165 min): 0.37 ng/mL
- c(Psilocin) ([5]; serum, test person B, oral P1 0.99 mg salt, 232 min): 0.32 ng/mL
- c(Psilocin) ([5]; serum, test person B, oral P1 0.99 mg salt, 322 min, below LOQ, extrapolated): 0.25* ng/mL
- c(Psilocin) ([5]; serum, test person B, oral P1 0.99 mg salt, 369 min, below LOQ, extrapolated): 0.24* ng/mL
- c(Psilocin) ([5]; serum, test person B, oral P1 0.99 mg salt, 432 min, below LOQ, extrapolated): 0.22* ng/mL
- Mean LogD (Micro shake flask Log D): 1.22

Structure (SMILES): CN(C)CCc1c[nH]c2cccc(OP(=O)(O)O)c12 [Psilocybin, psilocybin, reference compound]
- logD at 2 h (Micro shake flask Log D): 0.57
- solubility at 5 min [4]: ≥ 100 µM
